Source: patent US20190038689A1, “TOPICAL SKIN COMPOSITIONS FOR TREATING ERYTHEMA OR SKIN INFLAMMATION” (MARY KAY INC., priority 2017, published 2019)

Tested on: Nitric oxide synthases (NOS)
Assay: Nitric Oxide Synthase Activity Assay (NO product measured as nitrite, improved Griess method)
Type: biochemical
Conditions: for Nitric Oxide Synthase Activity: negative = reduction
Description: Nitric Oxide Synthase Activity Assay:
Nitric oxide synthases (NOS) are a family of enzymes catalyzing the production of nitric oxide (NO) from L-arginine. NOS is an important mediator of vasodilation in blood vessels. This bioassay was used to analyze the effect of saccharide isomerate extract, Myrothamnus flabellifolia extract, [6]-paradol, and a combination of algae extract and mugwort (Artemisia vulgaris) extract on the activity of NOS. The bioassay is performed in the presence or absence of the test compound, test extract, or positive control during production of NO by NOS. To measure the activity of NOS, the NO product is allowed to oxidize to nitrite and nitrate and then the nitrate is reduced to nitrite and measured using an improved Griess method. It was shown that saccharide isomerate extract, Myrothamnus flabellifolia extract, [6]-paradol, and a combination of algae extract and mugwort (Artemisia vulgaris) extract reduced the activity of NOS greater than the 1 μM SIN-1 positive control.

SMILES	Nitric Oxide Synthase Activity (1% ingredient) [%]	activity of NOS was reduced by (rounded values of Table 2 (1% ingredient)) [%]	activity of NOS was reduced by (1 μM positive control)	Nitric Oxide Synthase Activity (1 μM, positive control) [%]
CCCCCCCC(=O)CCc1ccc(O)c(OC)c1 [SYMRELIEF ® S, 1-(4-hydroxy-3-methoxyphenyl)decan-3-one]	−46.617	~47		
[NH-]c1c[n+](N2CCOCC2)no1 [SIN-1]			approximately 29%	−28.7
